Earlier results on one substance are cited in patent US20070092575A1, “Compositions for administering RNAIII-inhibiting peptides” (priority 2005, published 2007).

Where two headings read alike, the source gives them in different places. Ends that are not written are not given here.

One data set relates to S. aureus MS. To be noted: Osteomyelitis, rabbit, strain MS, +RIP.
The test system of data set [1] is S. aureus LS-1. To be noted: Sepsis, mouse, strain LS-1, +RIP.
Data set [2] deals with S. aureus LS-1. To be noted: Arthritis, mouse, strain LS-1, +RIP.
A further data set deals with S. aureus 8325-4. The conditions noted are these: Keratitis, rabbit, strain 8325-4, +RIP.
In data set [3] the test system is S. aureus Newbould 305, AE-1. The conditions noted are these: Mastitis, cow, strain Newbould/AE-1, +RIP.
For data set [4], the system named is S. aureus strain Smith diffuse. The conditions noted are these: Cellulitis/sepsis, mouse, +RIP.
Data set [5] concerns MRSA, MRSE, VISA, VISE, GISA, GISE, MSSA, MSSE. To be noted: Graft injection, rat, +RIP.

“YSPWTNF(-NH2) (YSPWTNF-NH2) [RIP, amide form of a synthetic RIP analogue]”: the “% animals disease free” value in the data set on S. aureus MS is reported as 58%; in the data set with S. aureus LS-1 [1] it was 44%; in the data set with S. aureus LS-1 [2], 60%; with S. aureus 8325-4 it was 40%; in data set [3] it was 70-100%; in data set [4], “Up to 100%”. Besides, the “% animals disease free” value in data set [5] is on record as “Up to 100%”.
